Legend:
Type in all cases: in vivo, rat
Sprague Dawley rats [1] = assay: Oral delivery of insulin in rats with delivery agent: change in blood glucose; conditions: delivery agent: insulin = 200 mg: 0.5 mg per Kg
Sprague Dawley rats [2] = assay: as above; conditions: 0.25 mg/kg insulin + 100 mg/kg delivery agent
Protocol: (§1) General anesthesia was induced in Sprague Dawley rats (250-350 gram) with 5% isoflurane in an anesthetic chamber, and the anesthesia was maintained with 2% isoflurane in 98% oxygen carrier gas up to the end of the study.
(§2) Jugular vein cannulation was carried out first for blood sampling by creating an incision just above the right clavicle. Using blunt forceps, the connective and adipose tissue were pushed aside and the jugular vein was exposed. The distal end of the exposed jugular vein was ligated, while its proximal end was strained to occlude the blood flow momentarily. A portion of the vessel near to the distal end was nipped, and the silicon catheter was inserted toward the proximal direction. After the catheter was tightened with a silk suture, the skin wound was closed with surgical staples.
(§3) The jejunum was prepared as follows: the proximal jejunum section was identified first. Plasma insulin and blood glucose levels were determined from a blood sample from the […] and used as a baseline.
(§4) The animal's abdominal cavity was opened. After the jejunum was identified, the part of the proximal segment was nipped with surgical scissors. A dosing tubing connected to a 1 ml syringe was introduced into the incised jejunum and carefully dosed. After dosing, the dosing tubing was removed. Then, a 2-cm polyethylene tubing was inserted into the jejunum so that the cut opening was located in the middle of the tubing. Both ends of the tube were tied with suture with the jejunum tissue to secure the jejunum, and, after the wound dried, a vet bond was applied over the top of the wound with a cotton swab. A 2 cm bridge tubing was placed to maintain the intestinal fluid flow intact.
(§5) After dosing and installation of the bridge, the exposed intestines were gently pushed back into place. The exposed wounds were covered with a wet gauge, and then with a paraffin film to prevent dehydration. Thereafter, blood samplings were performed at scheduled time-points.
(§6) Dose: 0.25 mg/kg Insulin, 100 mg/kg Delivery Agent, Concentration: 0.25 mg/ml, 100 mg/ml. Dose volume: 1 ml/kg.
(§7) Human recombinant insulin (ICN Biomedicals, Aurora, Ohio) was dissolved in deionized water (ph˜6.5) to obtain stock insulin solutions having a concentration of 15 mg/ml. 7-cyclopropylheptanoic acid was dissolved in deionized water to obtain a 200 mg/ml delivery agent solution. The free acid form of the delivery agent was converted to the sodium salt by adding one equivalent of sodium hydroxide. Solutions were vortexed, sonicated, and heated. If necessary, additional sodium hydroxide was added in μl quantities to achieve uniform solubility in the delivery agent solutions. Solutions were adjusted to a pH of 7.5-8.5 by the addition of either hydrochloric acid or sodium hydroxide, as appropriate. The insulin stock solution was then added to the delivery agent solutions to obtain an administration solution ultimately having an insulin concentration of 0.25 mg/ml. After solubilization and drug addition, administration solutions were brought to a final volume by the addition of deionized water.

[3] = Oral delivery of insulin in rats with delivery agent: serum insulin by ELISA; conditions: procedure of Example 2 (0.25 mg/kg insulin, 100 mg/kg delivery agent)
Protocol: as §1, §2, §3, §4, §5, §6, §7
The insulin assay was performed as follows. Concentrations of insulin were quantified in rat serum using a sandwich-type ELISA kit (Diagnostic Systems Laboratories, Inc., Webster, Tex.). Samples were collected into capiject tubes containing a clot activator (red top, serum separator tubes). Samples were allowed to clot for ˜20 minutes at 4° C. […]

O=C(O)CCCCCCC(=O)NCC1CC1 [Compound 13]
% of Glucose Reduction from Control (Sprague Dawley rats [1]; time 0 min): −0.862% | % of Glucose Reduction from Control (Sprague Dawley rats [1]; time 15 min): −10.523% | % of Glucose Reduction from Control (Sprague Dawley rats [1]; time 30 min): −20.866% | % of Glucose Reduction from Control (Sprague Dawley rats [1]; time 45 min): −28.011% | % of Glucose Reduction from Control (Sprague Dawley rats [1]; time 60 min): −32.952%

O=C(O)CCCCCCC1CC1 [Compound 1, 7-cyclopropylheptanoic acid]
Decrease of blood glucose (%) Average Value (Sprague Dawley rats [2]; time 0 min): 0% | Decrease of blood glucose (%) Average Value (Sprague Dawley rats [2]; time 5 min): −1.5% | Decrease of blood glucose (%) Average Value (Sprague Dawley rats [2]; time 10 min): −15.3% | Decrease of blood glucose (%) Average Value (Sprague Dawley rats [2]; time 20 min): −32.9% | Decrease of blood glucose (%) Average Value (Sprague Dawley rats [2]; time 40 min): −38.7% | Decrease of blood glucose (%) Average Value (Sprague Dawley rats [2]; time 60 min): −36.6% | Decrease of blood glucose (%) Average Value (Sprague Dawley rats [2]; time 90 min): −21.8%

COC(=O)CCCCCCCCC(=O)NC1CC1 [Compound 12]
Max Mean Cmax [uU/mL] [3]: 340.4 ± 191.3 uU/mL

COC(=O)CCCCCCC(=O)NC1CC1 [Compound 11]
Max Mean Cmax [uU/mL] [3]: 84.93 ± 57.8 uU/mL

O=C(O)CCCCCCCCC(=O)NCC1CC1 [Compound 15]
Max Mean Cmax [uU/mL] [3]: 71.2 ± 33.7 uU/mL

COC(=O)CCCCCCC(=O)NCC1CC1 [Compound 14]
Max Mean Cmax [uU/mL] [3]: 71.3 ± 35.2 uU/mL

O=C(O)CCCCCCCCC(=O)NC1CC1 [Compound 9, 10-(cyclopropylamino)-10-oxodecanoic acid]
Max Mean Cmax [uU/mL] [3]: 142.7 ± 62.7 uU/mL

From patent publication US8541362B2, “Cyclopropyl compounds and compositions for delivering active agents” (Emisphere Technologies, Inc., priority 2005, dated 2013)
